What was measured:
[1] = system: Natural E. coli TPP riboswitch (RNA, riboswitch) GGACUCGGGGUGCCCUUCUGCGUGAAGGCUGAGAAAUACCCGUAUCACCUGAUCUGGAUAAUGCCAGCGUAGGGAAGUUC; assay: ITC; details: 100 mM KCl, 10 mM MgCl2; 40 mM Hepes pH 7.5, 303.15 K
[2] = system: A1bG (RNA, riboswitch) GGACUCGGGGUGCCCUUCUGCGUGAAGGCUGAGAAAUACCCGUGUCACCUGAUCUGGAUAAUGCCAGCGUAGGGAAGUUC; assay: ITC; details: 100 mM KCl, 10 mM MgCl2; 40 mM Hepes pH 7.5, 303.15 K
[3] = system: ΔUC (RNA, riboswitch) GGACUCGGGGUGCCCUUCUGCGUGAAGGCUGAGAAAUACCCGUAACCUGAUCUGGAUAAUGCCAGCGUAGGGAAGUUC; assay: ITC; details: 100 mM KCl, 10 mM MgCl2; 40 mM Hepes pH 7.5, 303.15 K
[4] = system: A1nU (RNA, riboswitch) GGACUCGGGGUGCCCUUCUGCGUGAAGGCUGAGAAAUACCCGUAUCACCUGAUCUGGAUAAUGCCAGCGUAGGGUAGUUC; assay: ITC; details: 100 mM KCl, 10 mM MgCl2; 40 mM Hepes pH 7.5, 303.15 K
[5] = system: A2bC (RNA, riboswitch) GGACUCGGGGUGCCCUUCUGCGUGAAGGCUGAGAAAUACCCGUAUCCCCUGAUCUGGAUAAUGCCAGCGUAGGGAAGUUC; assay: ITC; details: 100 mM KCl, 10 mM MgCl2; 40 mM Hepes pH 7.5, 303.15 K
[6] = system: A2bU (RNA, riboswitch) GGACUCGGGGUGCCCUUCUGCGUGAAGGCUGAGAAAUACCCGUAUCUCCUGAUCUGGAUAAUGCCAGCGUAGGGAAGUUC; assay: ITC; details: 100 mM KCl, 10 mM MgCl2; 40 mM Hepes pH 7.5, 303.15 K
[7] = system: A1nC (RNA, riboswitch) GGACUCGGGGUGCCCUUCUGCGUGAAGGCUGAGAAAUACCCGUAUCACCUGAUCUGGAUAAUGCCAGCGUAGGGCAGUUC; assay: ITC; details: 100 mM KCl, 10 mM MgCl2; 40 mM Hepes pH 7.5, 303.15 K; 150 µM TPP titrated into 15 µM RNA
[8] = system: Natural E. coli TPP riboswitch (RNA, riboswitch) GGACUCGGGGUGCCCUUCUGCGUGAAGGCUGAGAAAUACCCGUAUCACCUGAUCUGGAUAAUGCCAGCGUAGGGAAGUUC; assay: native gel electrophoresis (mobility increase); details: 1 mM Mg2+; 25 mM Tris, 192 mM glycine pH 8.3; 100 µM TPP
[9] = system: A1nC (RNA, riboswitch) GGACUCGGGGUGCCCUUCUGCGUGAAGGCUGAGAAAUACCCGUAUCACCUGAUCUGGAUAAUGCCAGCGUAGGGCAGUUC; assay: native gel electrophoresis (mobility increase); details: 1 mM Mg2+; 25 mM Tris, 192 mM glycine pH 8.3; 100 µM TPP

Kd [1]: 230 ± 20 nM | Kd [2]: 2440 ± 230 nM | Kd [3]: 280 ± 40 nM | Kd [4]: 4070 ± 730 nM | Kd [5]: 850 ± 110 nM | Kd [6]: 550 ± 40 nM | binding [7]: no | binding [8]: yes | binding [9]: no
Compound: Cc1ncc(C[n+]2csc(CCOP(=O)(O)OP(=O)(O)O)c2C)c(N)n1

— publication PMC4005666 (2014)
